The record followed here is US11155664B2, “Polymeric nanoparticles useful in theranostics” (THE GOVERNING COUNCIL OF THE UNIVERSITY OF TORONTO, priority 2012, dated 2021).

The structures appear in SMILES notation. Values after ≈ are worked out from the molar mass of the structure shown.

For series [1] the following is noted: mouse, in vivo.
Text: The data are presented as mean±standard deviation of three independent runs.
T1-weighted images provide only a qualitative reflection of contrast agent distribution, primarily because of the sensitivity profiles of the RF transmit and receiver coils. In contrast, R1 maps provide a better quantitative measure of the contrast agent distribution in the whole body.
The temporal behaviour of the whole-body distribution of contrast agents was quantified by constructing R1 maps at multiple time-points following injection without moving the animal (FIG. 27A). Organ-specific concentration profiles were then quantified directly from R1 measurements in manually segmented regions-of-interest according to Equation 1 (described previously), (FIG. 27B,C).
The R1 of the left ventricular (LV) blood provides a useful indicator of vascular contrast agent enhancement in whole-body images.
The next series has as its system MDA-MB435/LCC6/WT cells. Description: MTT cell viability, wild-type cells. The class given is cell-based, human.

Experimental for MDA-MB435/LCC6/WT cells: Cells with no treatment and incubated with blank nanoparticles were used as control for free drug and drug loaded nanoparticle respectively. Cell viability is expressed as the percent of control for each treatment group. Data points represent the mean±standard deviation of the number of trials indicated for each experiment.
The cells were treated with increasing concentrations of doxorubicin or doxorubicin-loaded nanoparticles for 24 hrs and 48 hrs, and the cell viability was determined using MTT assay.

As to `CNC(=O)CN(CCN(CCN(CC(=O)[O-])CC(=O)NC)CC(=O)[O-])CC(=O)[O-].[Gd+3]` [Omniscan®, diethylenetriamine pentaacetic acid bismethylamide gadolinium], in series [1], the “LV blood R1” value was approximately 0.7 s⁻¹ and the “LV blood ΔR1” value was approximately 0.1 s⁻¹.

For `COc1cccc2c1C(=O)c1c(O)c3c(c(O)c1C2=O)C[C@@](O)(C(=O)CO)C[C@@H]3O[C@H]1C[C@H](N)[C@H](O)[C@H](C)O1` [free Dox, doxorubicin], the figures for the IC50 with MDA-MB435/LCC6/WT cells (24 hrs treatment) and in the series on MDA-MB435/LCC6/WT cells (48 hrs treatment) were 0.34 µg/mL (≈ 0.626 µM) and 0.07 µg/mL (≈ 0.129 µM), respectively.

Usually IC50 stands for the point on the concentration scale where inhibition reaches its midpoint. A high value points to weaker potency in that assay.
